PubChem BioAssay (NCI)
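Five compound concentrations were applied to cells in 96-well plates for 48 hours; endpoints were derived by simple linear interpolation of the resulting dose-response curve. TGI: total growth inhibition.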

How the values were obtained:
Experiment in all cases: DTP human tumour cell line panel, 48 h
[1] = system: 786-0 renal
[2] = system: A549 NSCLC
[3] = system: ACHN renal
[4] = system: CCRF-CEM leukemia
[5] = system: COLO 205 colon
[6] = system: DMS 273 small cell lung
[7] = system: EKVX NSCLC
[8] = system: HCC-2998 colon
[9] = system: HCT-116 colon
[10] = system: HCT-15 colon
[11] = system: HL-60(TB) leukemia
[12] = system: HOP-18 NSCLC
[13] = system: HOP-62 NSCLC
[14] = system: HOP-92 NSCLC
[15] = system: HT29 colon
[16] = system: IGROV1 ovarian
[17] = system: KM20L2 colon
[18] = system: LOX IMVI melanoma
[19] = system: LXFL 529 NSCLC
[20] = system: M19-MEL melanoma
[21] = system: MALME-3M melanoma
[22] = system: MOLT-4 leukemia
[23] = system: NCI-H226 lung
[24] = system: NCI-H23 lung
[25] = system: NCI-H460 lung
[26] = system: OVCAR-3 ovarian
[27] = system: OVCAR-5 ovarian
[28] = system: OVCAR-8 ovarian
[29] = system: RPMI-8226 leukemia
[30] = system: RXF 393 renal
[31] = system: RXF-631 renal
[32] = system: SF-268 CNS
[33] = system: SF-295 CNS
[34] = system: SF-539 CNS
[35] = system: SK-MEL-2 melanoma
[36] = system: SK-MEL-28 melanoma
[37] = system: SK-OV-3 ovarian
[38] = system: SN12C renal
[39] = system: SNB-19 CNS
[40] = system: SNB-75 CNS
[41] = system: SNB-78 CNS
[42] = system: SR leukemia
[43] = system: SW-620 colon
[44] = system: TK-10 renal
[45] = system: U251 CNS
[46] = system: UACC-257 melanoma
[47] = system: UACC-62 melanoma
[48] = system: UO-31 renal
[49] = system: XF 498 CNS
[50] = system: CAKI-1 renal
[51] = system: DLD-1 colon
[52] = system: DMS 114 small cell lung
[53] = system: K-562 leukemia
[54] = system: KM12 colon
[55] = system: M14 melanoma
[56] = system: NCI-H522 lung
[57] = system: OVCAR-4 ovarian
[58] = system: SK-MEL-5 melanoma

Measured: TGI

Cc1cc2c(=O)cc(-c3ccncc3)oc2c(C(=O)O)c1C
not listed: [50] | [51] | [52] | [53] | [54] | [55] | [56] | [57] | [58]
> 100 µM: all other assays above

O=C1COc2cc3c(cc2N1)SCC(=O)N3
not listed: [3] | [10] | [17] | [18] | [25] | [27] | [30] | [38] | [45]
> 100 µM: all other assays above
